Reference: PubChem BioAssay AID248 (DTP/NCI, 2004)
“And” between values parts separate entries of the source, which are not always exact repeats. Equal values may be shown once. Inconclusive results and toxic doses are left out. Cut-off read from the data, not from the text of the source: active = T/C of 150% or more; inactive = T/C below 125%.

System: L1210 leukemia ip in BDF1 mice, survival T/C
Assay: NCI In Vivo Anticancer Drug Screen. Data for tumor model L1210 Leukemia (intraperitoneal) in B6D2F1 (BDF1) mice
Conditions: endpoint: mean survival time, higher = longer survival
Method in brief: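 In this screen, tumor-bearing mice given compound are compared to those given vehicle, and their survival values are reported as a treated-to-control quotient.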

[1] = dose: 100.0 mg/kg/injection, schedule: Q04DX003 (ip), vehicle: other
[2] = dose: 200.0 mg/kg/injection, schedule: Q04DX003 (ip), vehicle: other
[3] = dose: 400.0 mg/kg/injection, schedule: Q04DX003 (ip), vehicle: other
[4] = dose: 100.0 mg/kg/injection, schedule: Q01DX001 (ip), vehicle: saline with Tween-80
[5] = dose: 100.0 mg/kg/injection, schedule: Q04DX002 (ip), vehicle: saline with Tween-80
[6] = dose: 100.0 mg/kg/injection, schedule: Q04DX003 (ip), vehicle: saline with Tween-80
[7] = dose: 200.0 mg/kg/injection, schedule: Q01DX001 (ip), vehicle: saline with Tween-80
[8] = dose: 200.0 mg/kg/injection, schedule: Q01DX009 (ip), vehicle: saline with Tween-80
[9] = dose: 200.0 mg/kg/injection, schedule: Q04DX002 (ip), vehicle: saline with Tween-80
[10] = dose: 200.0 mg/kg/injection, schedule: Q04DX003 (ip), vehicle: saline with Tween-80
[11] = dose: 400.0 mg/kg/injection, schedule: Q01DX001 (ip), vehicle: saline with Tween-80
[12] = dose: 400.0 mg/kg/injection, schedule: Q01DX009 (ip), vehicle: saline with Tween-80
[13] = dose: 400.0 mg/kg/injection, schedule: Q04DX002 (ip), vehicle: saline with Tween-80
[14] = dose: 400.0 mg/kg/injection, schedule: Q04DX003 (ip), vehicle: saline with Tween-80
[15] = dose: 100.0 mg/kg/injection, schedule: Q01DX001 (ip), vehicle: carboxymethylcellulose (CMC)
[16] = dose: 200.0 mg/kg/injection, schedule: Q01DX001 (ip), vehicle: carboxymethylcellulose (CMC)
[17] = dose: 400.0 mg/kg/injection, schedule: Q01DX001 (ip), vehicle: carboxymethylcellulose (CMC)

Measured: T/C

Cc1c2oc3c(C)ccc(C(=O)NCCN4CCCCC4)c3nc-2c(C(=O)NCCN2CCCCC2)c(N)c1=O
inactive: dose: 100.0 mg/kg/injection, schedule: Q04DX002 (ip), vehicle: saline 103 % of control | dose: 200.0 mg/kg/injection, schedule: Q04DX002 (ip), vehicle: saline 109 % of control

Cc1c(Cl)c(C)c(Sc2c(C)c(Cl)c(C)c(Br)c2O)c(O)c1Br
inactive: dose: 100.0 mg/kg/injection, schedule: Q01DX001 (ip), vehicle: other 87 % of control | [1] 100 % of control | dose: 200.0 mg/kg/injection, schedule: Q01DX001 (ip), vehicle: other 88 % of control | [2] 107 % of control | dose: 400.0 mg/kg/injection, schedule: Q01DX001 (ip), vehicle: other 93 % of control | [3] 113 % of control

CCOC(=O)c1ccc(NC(=O)c2ccc(Cl)c(Cl)c2)cc1
inactive: [4] 112 % of control | dose: 100.0 mg/kg/injection, schedule: Q01DX009 (ip), vehicle: saline with Tween-80 97 % of control | [5] 97 % of control and 91 % of control | [6] 104 % of control | [7] 115 % of control | [8] 93 % of control and 101 % of control | [9] 93 % of control and 87 % of control | [10] 108 % of control | [11] 93 % of control | [12] 103 % of control and 114 % of control | [13] 93 % of control and 92 % of control | [14] 97 % of control

ClCC1CNC(c2ccccc2)O1 (centres undefined)
inactive: dose: 12.5 mg/kg/injection, schedule: Q04DX003 (ip), vehicle: saline with Tween-80 96 % of control | dose: 25.0 mg/kg/injection, schedule: Q04DX003 (ip), vehicle: saline with Tween-80 101 % of control | dose: 50.0 mg/kg/injection, schedule: Q04DX003 (ip), vehicle: saline with Tween-80 98 % of control | [15] 95 % of control | [16] 93 % of control | [17] 101 % of control

CC(CCC(=O)O)(c1ccc(O)cc1)c1ccc(O)cc1
inactive: [1] 99 % of control | [2] 105 % of control | [3] 97 % of control

Cc1ccc(Cl)c(NC(=O)COc2ccc(Cl)cc2)c1
inactive: dose: 100.0 mg/kg/injection, schedule: Q01DX009 (ip), vehicle: Klucel (hydroxypropylcellulose) (HPC) 93 % of control | dose: 200.0 mg/kg/injection, schedule: Q01DX009 (ip), vehicle: Klucel (hydroxypropylcellulose) (HPC) 94 % of control | dose: 400.0 mg/kg/injection, schedule: Q01DX009 (ip), vehicle: Klucel (hydroxypropylcellulose) (HPC) 94 % of control

OC(C=S)CS (centres undefined)
inactive: [5] 95 % of control | [9] 92 % of control | [13] 95 % of control

CCC(C)NC(=O)Oc1cccc(NC(=O)OC)c1 (centres undefined)
inactive: [6] 95 % of control | [10] 93 % of control | [14] 92 % of control

NC(=O)OCc1c(O)c2c(c(O)c1COC(N)=O)C(=O)C=CC2=O
inactive: dose: 6.25 mg/kg/injection, schedule: Q01DX009 (ip), vehicle: water 94 % of control | dose: 12.5 mg/kg/injection, schedule: Q01DX009 (ip), vehicle: water 92 % of control | dose: 25.0 mg/kg/injection, schedule: Q01DX009 (ip), vehicle: water 99 % of control | dose: 50.0 mg/kg/injection, schedule: Q01DX009 (ip), vehicle: water 90 % of control | dose: 100.0 mg/kg/injection, schedule: Q01DX009 (ip), vehicle: water 95 % of control

C=C1C(=O)OC2C1CCC(C)C1(CCC(=O)O1)C2(C)O (centres undefined)
inactive: [6] 96 % of control | [10] 96 % of control | [14] 96 % of control

Cc1c(F)cccc1C(=O)O
inactive: dose: 100.0 mg/kg/injection, schedule: Q01DX009 (ip), vehicle: carboxymethylcellulose (CMC) 101 % of control and 102 % of control | dose: 100.0 mg/kg/injection, schedule: Q04DX002 (ip), vehicle: carboxymethylcellulose (CMC) 100 % of control | dose: 100.0 mg/kg/injection, schedule: Q04DX003 (ip), vehicle: carboxymethylcellulose (CMC) 103 % of control | dose: 200.0 mg/kg/injection, schedule: Q01DX009 (ip), vehicle: carboxymethylcellulose (CMC) 102 % of control and 87 % of control | dose: 200.0 mg/kg/injection, schedule: Q04DX002 (ip), vehicle: carboxymethylcellulose (CMC) 93 % of control and 105 % of control | dose: 200.0 mg/kg/injection, schedule: Q04DX003 (ip), vehicle: carboxymethylcellulose (CMC) 103 % of control | dose: 400.0 mg/kg/injection, schedule: Q01DX009 (ip), vehicle: carboxymethylcellulose (CMC) 97 % of control and 90 % of control | dose: 400.0 mg/kg/injection, schedule: Q04DX002 (ip), vehicle: carboxymethylcellulose (CMC) 93 % of control and 102 % of control | dose: 400.0 mg/kg/injection, schedule: Q04DX003 (ip), vehicle: carboxymethylcellulose (CMC) 101 % of control

O=C(CSCC(=O)c1ccccc1)c1ccccc1
inactive: dose: 12.5 mg/kg/injection, schedule: Q01DX009 (ip), vehicle: Klucel (hydroxypropylcellulose) (HPC) 93 % of control | dose: 25.0 mg/kg/injection, schedule: Q01DX009 (ip), vehicle: Klucel (hydroxypropylcellulose) (HPC) 104 % of control | dose: 50.0 mg/kg/injection, schedule: Q01DX009 (ip), vehicle: Klucel (hydroxypropylcellulose) (HPC) 112 % of control | dose: 80.0 mg/kg/injection, schedule: Q01DX009 (ip), vehicle: Klucel (hydroxypropylcellulose) (HPC) 103 % of control | dose: 115.0 mg/kg/injection, schedule: Q01DX009 (ip), vehicle: Klucel (hydroxypropylcellulose) (HPC) 100 % of control | dose: 170.0 mg/kg/injection, schedule: Q01DX009 (ip), vehicle: Klucel (hydroxypropylcellulose) (HPC) 100 % of control

O=C(COc1ccccc1)NCCc1ccccc1
inactive: dose: 100.0 mg/kg/injection, schedule: Q04DX003 (ip), vehicle: gum acacia 97 % of control | dose: 200.0 mg/kg/injection, schedule: Q04DX003 (ip), vehicle: gum acacia 108 % of control | dose: 400.0 mg/kg/injection, schedule: Q04DX003 (ip), vehicle: gum acacia 95 % of control

COc1cc2c(cc1O)C(=O)CCC=C2
inactive: dose: 50.0 mg/kg/injection, schedule: Q01DX009 (ip), vehicle: other 102 % of control | dose: 100.0 mg/kg/injection, schedule: Q01DX009 (ip), vehicle: other 98 % of control | dose: 200.0 mg/kg/injection, schedule: Q01DX009 (ip), vehicle: other 94 % of control

O=C(NC(=S)Nc1cc(C(F)(F)F)ccc1Cl)c1ccccc1F
inactive: dose: 12.5 mg/kg/injection, schedule: Q01DX009 (ip), vehicle: saline with Tween-80 93 % of control and 97 % of control | [4] 104 % of control | [5] 97 % of control and 100 % of control | [7] 102 % of control | [8] 86 % of control | [9] 93 % of control and 97 % of control | [11] 102 % of control | [12] 95 % of control | [13] 100 % of control and 91 % of control | [14] 87 % of control

[CH3][Sb]1([Cl])[CH2]CCC[CH2]1
inactive: dose: 50.0 mg/kg/injection, schedule: Q04DX003 (ip), vehicle: saline 97 % of control | dose: 100.0 mg/kg/injection, schedule: Q04DX003 (ip), vehicle: saline 104 % of control | dose: 200.0 mg/kg/injection, schedule: Q04DX003 (ip), vehicle: saline 104 % of control

O=C1O/C(=C2\OCc3ccccc32)c2ccccc21
inactive: dose: 50.0 mg/kg/injection, schedule: Q01DX001 (ip), vehicle: carboxymethylcellulose (CMC) 91 % of control | [15] 107 % of control | [16] 100 % of control | [17] 91 % of control
